Assay results from US20100286038A1, “FORMULATION CONTAINING CYCLIN-DEPENDENT KINASE INHIBITING COMPOUND AND METHOD OF TREATING TUMORS USING THE SAME” (priority 2007, published 2010).
Read-outs that look alike come from different tables or passages of the source.

Legend:
H82 (SCLC) = experiment: xenograft tumor model; settings: mouse, in vivo
A2780 cells [1] = experiment: in-cell inhibition of thymidine incorporation; type: cell-based; settings: Homo sapiens
[2] = tested on: A2780 ovarian carcinoma xenografts; experiment: A2780 xenograft ovarian cancer model; type: in vivo, nude mice
AMPK = experiment: Upstate kinase Profiler counter-screening; type: biochemical
CaMKII = type: biochemical
CDK6/cyclinD3 = molecular target: T1, CDK6/cyclinD3 (Homo sapiens, UniProt Q00534); experiment: Upstate kinase Profiler counter-screening; type: biochemical
T1 construct: purchased Upstate

CDK7/cyclinH/MAT1 = molecular target: T2, CDK7/cyclinH/MAT1 (Homo sapiens, UniProt P50613); experiment: Upstate kinase Profiler counter-screening; type: biochemical
T2 construct: purchased Upstate
T2 sequence (P50613 whole entry, species assumed): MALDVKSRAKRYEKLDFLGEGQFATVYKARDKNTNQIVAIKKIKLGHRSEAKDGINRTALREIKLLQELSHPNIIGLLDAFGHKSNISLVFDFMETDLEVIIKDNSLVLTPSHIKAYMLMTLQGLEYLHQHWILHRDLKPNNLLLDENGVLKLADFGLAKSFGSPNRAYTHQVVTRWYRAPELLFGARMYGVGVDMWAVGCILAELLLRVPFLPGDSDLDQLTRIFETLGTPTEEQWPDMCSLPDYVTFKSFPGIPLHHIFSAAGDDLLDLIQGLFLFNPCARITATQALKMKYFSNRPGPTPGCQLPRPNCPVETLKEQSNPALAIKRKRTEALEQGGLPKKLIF
T2 sequence (P51946 whole entry partner, species assumed): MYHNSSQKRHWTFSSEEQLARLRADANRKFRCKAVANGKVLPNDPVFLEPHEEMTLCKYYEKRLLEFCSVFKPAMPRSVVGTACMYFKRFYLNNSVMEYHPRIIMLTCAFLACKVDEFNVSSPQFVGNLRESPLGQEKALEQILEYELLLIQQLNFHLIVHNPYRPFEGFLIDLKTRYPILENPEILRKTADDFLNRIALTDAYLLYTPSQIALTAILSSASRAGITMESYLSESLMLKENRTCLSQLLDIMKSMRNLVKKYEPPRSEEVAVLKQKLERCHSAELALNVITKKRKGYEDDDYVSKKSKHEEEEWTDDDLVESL
T2 sequence (P51948 whole entry partner, species assumed): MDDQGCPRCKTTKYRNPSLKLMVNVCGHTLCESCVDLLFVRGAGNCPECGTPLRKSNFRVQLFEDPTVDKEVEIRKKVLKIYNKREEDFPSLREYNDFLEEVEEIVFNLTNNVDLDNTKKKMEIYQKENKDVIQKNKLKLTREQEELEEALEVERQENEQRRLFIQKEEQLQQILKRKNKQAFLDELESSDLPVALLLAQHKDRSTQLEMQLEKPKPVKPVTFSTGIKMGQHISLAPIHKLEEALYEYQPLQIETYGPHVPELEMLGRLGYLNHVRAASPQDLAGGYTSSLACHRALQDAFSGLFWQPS

cSRC = molecular target: T3, cSRC (Homo sapiens, UniProt P12931); experiment: Upstate kinase Profiler counter-screening; type: biochemical
T3 construct: purchased Upstate

Fes = molecular target: T4, Fes (Homo sapiens, UniProt P07332); experiment: Upstate kinase Profiler counter-screening; type: biochemical
T4 construct: purchased Upstate
T4 sequence (P07332 whole entry, species assumed): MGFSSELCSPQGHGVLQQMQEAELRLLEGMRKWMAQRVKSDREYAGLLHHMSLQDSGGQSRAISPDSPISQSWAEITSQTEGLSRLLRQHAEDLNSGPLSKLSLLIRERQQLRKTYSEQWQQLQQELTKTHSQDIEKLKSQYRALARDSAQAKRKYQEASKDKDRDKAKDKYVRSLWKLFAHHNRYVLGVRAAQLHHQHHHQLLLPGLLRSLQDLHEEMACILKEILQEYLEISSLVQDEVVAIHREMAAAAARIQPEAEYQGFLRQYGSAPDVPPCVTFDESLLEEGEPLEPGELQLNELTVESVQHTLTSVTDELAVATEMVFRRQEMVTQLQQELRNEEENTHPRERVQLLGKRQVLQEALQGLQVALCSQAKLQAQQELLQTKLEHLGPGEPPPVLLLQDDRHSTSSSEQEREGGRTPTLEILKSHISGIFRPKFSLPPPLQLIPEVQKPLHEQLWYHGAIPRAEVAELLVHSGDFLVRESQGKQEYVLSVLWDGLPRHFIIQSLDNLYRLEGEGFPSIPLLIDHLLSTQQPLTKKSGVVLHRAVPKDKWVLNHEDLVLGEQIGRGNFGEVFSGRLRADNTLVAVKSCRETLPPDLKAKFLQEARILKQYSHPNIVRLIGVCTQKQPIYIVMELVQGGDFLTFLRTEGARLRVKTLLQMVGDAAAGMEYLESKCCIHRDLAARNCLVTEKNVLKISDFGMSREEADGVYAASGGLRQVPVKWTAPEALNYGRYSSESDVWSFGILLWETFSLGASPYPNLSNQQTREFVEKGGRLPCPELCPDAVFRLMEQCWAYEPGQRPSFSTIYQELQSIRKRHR

Lyn = molecular target: T5, Lyn (Homo sapiens, UniProt P07948); experiment: Upstate kinase Profiler counter-screening; type: biochemical
T5 construct: purchased Upstate
T5 sequence (P07948 whole entry, species assumed): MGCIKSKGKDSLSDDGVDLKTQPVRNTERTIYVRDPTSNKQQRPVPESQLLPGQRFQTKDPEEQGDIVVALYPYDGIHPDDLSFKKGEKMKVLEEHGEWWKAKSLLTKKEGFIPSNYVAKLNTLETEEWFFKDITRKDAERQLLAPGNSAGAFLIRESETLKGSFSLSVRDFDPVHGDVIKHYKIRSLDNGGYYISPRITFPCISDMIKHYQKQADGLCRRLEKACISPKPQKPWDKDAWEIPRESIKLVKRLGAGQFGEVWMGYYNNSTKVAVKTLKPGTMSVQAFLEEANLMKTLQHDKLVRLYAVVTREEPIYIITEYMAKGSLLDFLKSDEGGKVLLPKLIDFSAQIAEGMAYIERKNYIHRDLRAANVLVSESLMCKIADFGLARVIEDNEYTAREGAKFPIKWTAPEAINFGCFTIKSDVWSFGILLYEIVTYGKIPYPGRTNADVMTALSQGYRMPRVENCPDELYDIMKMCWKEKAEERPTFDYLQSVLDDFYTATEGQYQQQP

MSK1 = molecular target: T6, MSK1 (Homo sapiens, UniProt O75582); experiment: Upstate kinase Profiler counter-screening; type: biochemical
T6 construct: purchased Upstate
T6 sequence (O75582 whole entry, species assumed): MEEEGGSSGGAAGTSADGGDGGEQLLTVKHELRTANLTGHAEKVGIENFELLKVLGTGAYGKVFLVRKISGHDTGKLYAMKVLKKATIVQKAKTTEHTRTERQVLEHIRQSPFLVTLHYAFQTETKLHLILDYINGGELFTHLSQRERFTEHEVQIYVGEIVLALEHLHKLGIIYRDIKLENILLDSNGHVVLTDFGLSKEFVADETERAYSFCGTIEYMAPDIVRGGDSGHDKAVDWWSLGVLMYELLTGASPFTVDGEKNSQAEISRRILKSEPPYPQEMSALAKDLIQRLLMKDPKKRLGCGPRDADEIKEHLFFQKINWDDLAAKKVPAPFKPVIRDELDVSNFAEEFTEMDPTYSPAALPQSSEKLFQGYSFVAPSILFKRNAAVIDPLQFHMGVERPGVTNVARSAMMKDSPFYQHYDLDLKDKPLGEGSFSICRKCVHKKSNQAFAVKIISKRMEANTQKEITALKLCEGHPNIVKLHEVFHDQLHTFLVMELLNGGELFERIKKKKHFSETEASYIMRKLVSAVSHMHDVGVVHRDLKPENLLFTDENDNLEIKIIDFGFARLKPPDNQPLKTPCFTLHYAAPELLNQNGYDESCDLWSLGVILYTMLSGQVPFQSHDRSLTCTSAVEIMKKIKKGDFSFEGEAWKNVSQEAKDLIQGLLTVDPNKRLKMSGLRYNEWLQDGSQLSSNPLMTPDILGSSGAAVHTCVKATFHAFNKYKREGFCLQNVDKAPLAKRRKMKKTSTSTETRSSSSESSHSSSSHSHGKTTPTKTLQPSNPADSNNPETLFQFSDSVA

PKCα = molecular target: T7, PKCα (Homo sapiens, UniProt P17252); experiment: Upstate kinase Profiler counter-screening; type: biochemical
T7 construct: purchased Upstate

PKCβII = molecular target: T8, PKCβII (Homo sapiens, UniProt P05771); experiment: Upstate kinase Profiler counter-screening; type: biochemical
T8 construct: purchased Upstate
T8 sequence (P05771 1-673 isoform P05771-2): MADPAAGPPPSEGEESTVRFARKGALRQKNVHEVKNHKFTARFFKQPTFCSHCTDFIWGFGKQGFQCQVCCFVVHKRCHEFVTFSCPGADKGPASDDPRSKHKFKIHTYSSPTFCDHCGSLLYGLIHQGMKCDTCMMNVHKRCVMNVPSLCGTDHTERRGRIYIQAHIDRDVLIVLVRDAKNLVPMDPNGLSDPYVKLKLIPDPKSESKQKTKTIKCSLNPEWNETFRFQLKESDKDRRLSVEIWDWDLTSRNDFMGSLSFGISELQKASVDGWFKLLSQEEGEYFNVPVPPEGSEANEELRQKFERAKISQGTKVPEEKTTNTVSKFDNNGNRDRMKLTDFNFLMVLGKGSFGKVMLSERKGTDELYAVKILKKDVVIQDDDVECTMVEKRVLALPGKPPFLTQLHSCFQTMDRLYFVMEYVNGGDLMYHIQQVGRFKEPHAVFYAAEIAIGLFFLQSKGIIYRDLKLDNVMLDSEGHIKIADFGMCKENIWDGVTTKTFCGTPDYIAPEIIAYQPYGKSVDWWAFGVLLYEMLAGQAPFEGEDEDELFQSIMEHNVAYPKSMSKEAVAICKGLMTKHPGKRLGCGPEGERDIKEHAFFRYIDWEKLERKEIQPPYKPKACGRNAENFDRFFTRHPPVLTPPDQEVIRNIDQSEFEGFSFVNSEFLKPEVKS

PKCε = molecular target: T9, PKCε (Homo sapiens, UniProt Q02156); experiment: Upstate kinase Profiler counter-screening; type: biochemical
T9 construct: purchased Upstate
T9 sequence (Q02156 1-737): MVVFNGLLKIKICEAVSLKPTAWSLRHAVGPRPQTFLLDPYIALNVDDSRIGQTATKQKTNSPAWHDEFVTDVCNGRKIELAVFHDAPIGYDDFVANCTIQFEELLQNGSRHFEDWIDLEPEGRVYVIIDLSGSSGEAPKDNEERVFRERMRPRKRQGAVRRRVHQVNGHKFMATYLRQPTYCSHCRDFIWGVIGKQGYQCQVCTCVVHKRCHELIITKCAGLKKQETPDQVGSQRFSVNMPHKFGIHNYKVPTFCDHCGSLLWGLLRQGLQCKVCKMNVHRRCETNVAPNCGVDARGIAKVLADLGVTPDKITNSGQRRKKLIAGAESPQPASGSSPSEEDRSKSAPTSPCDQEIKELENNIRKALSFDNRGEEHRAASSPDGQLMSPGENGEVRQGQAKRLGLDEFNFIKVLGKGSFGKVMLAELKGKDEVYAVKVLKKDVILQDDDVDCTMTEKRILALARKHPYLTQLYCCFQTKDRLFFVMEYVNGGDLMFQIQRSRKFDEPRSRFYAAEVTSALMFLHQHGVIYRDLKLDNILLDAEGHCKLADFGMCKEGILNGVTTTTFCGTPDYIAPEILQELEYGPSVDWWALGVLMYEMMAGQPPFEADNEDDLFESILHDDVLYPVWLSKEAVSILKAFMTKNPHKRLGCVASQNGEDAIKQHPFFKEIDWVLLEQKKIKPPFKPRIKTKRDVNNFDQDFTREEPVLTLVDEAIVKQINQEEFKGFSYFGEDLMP

PKCθ = molecular target: T10, PKCθ (Homo sapiens, UniProt Q04759); experiment: Upstate kinase Profiler counter-screening; type: biochemical
T10 construct: purchased Upstate

Rsk2 = molecular target: T11, Rsk2 (Homo sapiens, UniProt P51812); experiment: Upstate kinase Profiler counter-screening; type: biochemical
T11 construct: purchased Upstate

YES = molecular target: T12, YES (Homo sapiens, UniProt P07947); experiment: Upstate kinase Profiler counter-screening; type: biochemical
T12 construct: purchased Upstate
T12 sequence (P07947 whole entry, species assumed): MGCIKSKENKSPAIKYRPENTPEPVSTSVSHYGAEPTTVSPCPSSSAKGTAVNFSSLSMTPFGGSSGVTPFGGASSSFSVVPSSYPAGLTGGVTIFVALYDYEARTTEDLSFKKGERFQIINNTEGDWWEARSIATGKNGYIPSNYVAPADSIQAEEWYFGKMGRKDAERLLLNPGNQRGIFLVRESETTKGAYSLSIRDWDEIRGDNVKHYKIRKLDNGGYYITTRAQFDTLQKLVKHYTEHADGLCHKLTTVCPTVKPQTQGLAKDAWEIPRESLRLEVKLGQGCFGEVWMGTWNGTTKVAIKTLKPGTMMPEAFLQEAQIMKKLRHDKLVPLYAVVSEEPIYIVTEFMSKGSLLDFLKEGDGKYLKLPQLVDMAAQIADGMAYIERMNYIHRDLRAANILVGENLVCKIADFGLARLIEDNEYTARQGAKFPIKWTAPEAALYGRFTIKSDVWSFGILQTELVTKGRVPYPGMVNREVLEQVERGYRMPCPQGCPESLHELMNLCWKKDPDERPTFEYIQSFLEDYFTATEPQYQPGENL

A2780 cells [3] = settings: 16 hours exposure
Source text: Accumulation of the p85 PARP product was also monitored to assess activation of caspases and correlate inhibition of CDKs with the onset of apoptosis.

in vivo = settings: nude, mouse, ip
A549 NSCLC xenografts = settings: mouse, in vivo

## N.N.O=C([O-])C1(C(=O)[O-])CCC1.[Pt+2] [carboplatin, reference compound]
H82 (SCLC)
  % inhibition observed with benchmark cytotoxic agent: 40%

## CN1CC[C@H](c2c(O)cc(O)c3c(=O)cc(-c4ccccc4Cl)oc23)[C@H](O)C1 [Formula III, Flavopiridol, reference compound]
A2780 cells [1]
  IC50: 70 nM
[2]; once per day IP for 7 days, dose inducing at least 50% inhibition of tumor growth
  MED: 10 mg/kg
AMPK; at 1 μM
  % remaining activity: 67%
AMPK; at 10 μM
  % remaining activity: 20%
CaMKII; at 1 μM
  % remaining activity: 44%
CaMKII; at 10 μM
  % remaining activity: 30%
CDK6/cyclinD3; at 1 μM
  remaining activity at 1 µM: 25%
CDK6/cyclinD3; at 10 μM
  remaining activity at 10 µM: 6%
CDK7/cyclinH/MAT1; at 1 μM
  remaining activity at 1 µM: 18%
CDK7/cyclinH/MAT1; at 10 μM
  remaining activity at 10 µM: 6%
cSRC; at 1 μM
  remaining activity at 1 µM: 3%
cSRC; at 10 μM
  remaining activity at 10 µM: 4%
Fes; at 1 μM
  remaining activity at 1 µM: 44%
Fes; at 10 μM
  remaining activity at 10 µM: 13%
Lyn; at 1 μM
  remaining activity at 1 µM: 73%
Lyn; at 10 μM
  remaining activity at 10 µM: 18%
MSK1; at 1 μM
  remaining activity at 1 µM: 74%
MSK1; at 10 μM
  remaining activity at 10 µM: 37%
PKCα; at 1 μM
  remaining activity at 1 µM: 66%
PKCα; at 10 μM
  remaining activity at 10 µM: 20%
PKCβII; at 1 μM
  remaining activity at 1 µM: 75%
PKCβII; at 10 μM
  remaining activity at 10 µM: 26%
PKCε; at 1 μM
  remaining activity at 1 µM: 45%
PKCε; at 10 μM
  remaining activity at 10 µM: 9%
PKCθ; at 1 μM
  remaining activity at 1 µM: 23%
PKCθ; at 10 μM
  remaining activity at 10 µM: 5%
Rsk2; at 1 μM
  remaining activity at 1 µM: 65%
Rsk2; at 10 μM
  remaining activity at 10 µM: 18%
YES; at 1 μM
  remaining activity at 1 µM: 68%
YES; at 10 μM
  remaining activity at 10 µM: 40%
A2780 cells [3]
  concentration required to induce detectable effects on phospho-Ser 807/811 levels: about 1 micromolar
In vivo
  MTD at 7 days: < 10 mg/kg

## CC(=O)O[C@H]1C(=O)[C@@]2(C)[C@H]([C@H](OC(=O)c3ccccc3)[C@]3(O)C[C@H](OC(=O)[C@H](O)[C@@H](NC(=O)c4ccccc4)c4ccccc4)C(C)=C1C3(C)C)[C@]1(OC(C)=O)CO[C@@H]1C[C@@H]2O [paclitaxel, reference compound]
[2]; 20 mg/kg IP twice weekly, ten day period
  tumor growth inhibited: 63%
A549 NSCLC xenografts
  % inhibition observed with benchmark cytotoxic agent: 0%
